Assay results: the SangsterLogP compilation

What was measured:
[1] = method code SF-RC, from DOI: 10.1021/jm070025+, PMID: 17411026; conditions: pH 7.4
[2] = method code SF-RC, from DOI: 10.1016/j.ejmech.2014.07.070, PMID: 25063945; conditions: pH 7.4
[3] = method code SF-HPLC, from DOI: 10.1584/jpestics.11.469
[4] = method code SF-HPLC, from DOI: 10.1016/j.apradiso.2007.04.014, PMID: 17574425; conditions: pH 7.4
[5] = method code SF-AS, from DOI: 10.1023/a:1018977225919, PMID: 10554109; conditions: pH 3.5
[6] = method code SF-RC, from DOI: 10.1016/j.nucmedbio.2005.06.001, PMID: 16253804; conditions: pH 7.4
[7] = not given; remark: listed apart in the source
[8] = not given; remark: listed apart in the source
[9] = not given; remark: listed apart in the source
[10] = method code SF-AS, from DOI: 10.1016/0223-5234(94)90120-1; conditions: pH 7.4
[11] = not given; remark: listed apart in the source
[12] = method code SF-RC, from DOI: 10.1021/jm301492y, PMID: 23214511; conditions: pH 7.4
[13] = method code SF-HPLC, from DOI: 10.1039/p29890001935
[14] = method code SF-HPLC, from DOI: 10.1016/j.bmc.2011.11.059, PMID: 22189276; conditions: pH 7.4
[15] = not given; remark: listed apart in the source
[16] = method code SF-RC, from DOI: 10.1002/syn.21606, PMID: 22927303; conditions: pH 7.4
[17] = from Courrière, P.; Paubel, J.P.; Nivière, P.; Foussard-Blaspin, O. (1978). Structure-activity study in a series of local anesthetic agents. I. Physicochemical properties and molecular orbital study. …
[18] = method code SF-GLC, from DOI: 10.1023/a:1015803202857, PMID: 2395795
[19] = not given; remark: listed apart in the source
[20] = not given; remark: listed apart in the source
[21] = not given; remark: listed apart in the source
[22] = method code SF-AS, from DOI: 10.1021/jm9807104, PMID: 10514282; conditions: pH 7.0
[23] = not given; remark: listed apart in the source
[24] = method code SF-ESR, from DOI: 10.1515/znc-1987-7-832, PMID: 2961152
[25] = not given; remark: listed apart in the source
[26] = method code SF-AS, from DOI: 10.1002/jps.2600720808, PMID: 6620139
[27] = method code SF-AS, from PMID: 8053967; conditions: pH 7.4
[28] = method code SF-AS, from DOI: 10.1002/jps.2600610435, PMID: 5014327
[29] = method code SF-AS, from DOI: 10.1080/1071576031000148736, PMID: 14567446
[30] = not given; remark: listed apart in the source

`CNc1ccc(/C=C/c2cnc(OCCOCCOCCF)c(I)c2)cc1` gave a logD [1] of 2.54.

`Cc1cccc(OC(=O)N(C)SN(C)C(=O)Oc2ccc3c(c2)OCO3)c1` gave a logP of 2.66.

With `CNc1ccc(/C=C/C(=O)/C=C/c2ccc(F)cc2)cc1` the logD [2] was 2.69.

Work on `CCOC(=O)C(C)Oc1ccc(Oc2cnc3cc(C)ccc3n2)cc1` (stereo unspecified) yielded a logP [3] of 4.11.

In the case of `O=C(CCl)Nc1cc2c(Nc3cc(Cl)c(Cl)cc3F)ncnc2cc1OCCOCCOCCOCCF`, the logD [4] is reported as 4.64.

`CCCCCC(O)C=CC1C(O)CC(=O)C1CCCCCCC(=O)O` (stereo unspecified) gave a logD [5] of 3.12.

`CNc1ccc(C=Cc2ccc(OCCOCCOCCF)cc2)cc1` gave a logD [6] of 2.41.

`CN(C)c1ccc(/C=C/C(=O)/C=C/c2ccc(F)cc2)cc1` gave a logD [2] of 3.89.

`C[C@]12CC[C@H](O)CC1=CC[C@@H]1[C@@H]2CC[C@]2(C)C(=O)CC[C@@H]12` showed a logP [7] of 3.23.

For `COc1ccc(-c2oc3c(CC=C(C)C)c(O)cc(O)c3c(=O)c2O[C@@H]2O[C@@H](C)[C@H](O)[C@@H](O)[C@H]2O)cc1`, the logP [8] was 5.11.

Work on `COc1ccc(-c2oc3c(CC=C(C)C)c(O)cc(O)c3c(=O)c2O)cc1` yielded a logP [8] of 6.07.

`CSc1nc(NCc2cccc(Cl)c2)c2cnn(CC(Cl)c3ccccc3)c2n1` (stereo unspecified) gave a logP [9] of 5.87.

Compound `S=C1SCN(CCc2ccccc2)CN1CCc1ccccc1` has a logD [10] of 5.3.

In the case of `C[C@]12CC[C@@H](O)C[C@@H]1CC[C@@H]1[C@@H]2CC[C@]2(C)[C@@H](O)CC[C@@H]12`, the logP [7] is reported as 4.16.

With `CNc1nc(NCCCN(C)C)c2sc(-c3cccc(C(=O)C(F)(F)F)c3)cc2n1` the logP [11] was 4.3.

Compound `CCCCCCNC(=O)c1ccc(O)c(-c2ccccc2)c1` has a logD [12] of 3.67.

With `S=C1SCN(CCc2ccccc2)CN1Cc1ccccc1` the logD [10] was 4.7.

With `FC(F)(F)c1ccccc1C1OCC2ON=C(c3ccccc3)C2CO1` (stereo unspecified) the logP [13] was 4.31.

In the case of `CCOC(=O)COC(=O)NCCCC(C)Nc1cc(OC)cc2cccn12` (stereo unspecified), the logD [14] is reported as 3.09.

Work on `COc1cc2nc(N(C)CCCNC(=O)C3CCCO3)nc(N)c2cc1OC` (stereo unspecified) yielded a logP [15] of 1.93.

Compound `CCc1cc2cc(C(=O)C3CCC(OC)CC3)ccc2nc1C` (stereo unspecified) has a logD [16] of 3.38.

Compound `Cc1cccc(C)c1N(CCCN(C)C)C(=O)Cc1ccccc1` has a logP [17] of 4.9.

Compound `O=C(CCCN1CCC(O)(c2ccc(Cl)cc2)CC1)c1ccc(F)cc1` has a logP [18] of 3.23.

`O=C(CCl)Nc1cc2c(Nc3cc(Cl)c(Cl)cc3F)ncnc2cc1OCCOCCF` showed a logD [4] of 4.3.

`CC1(C)C=C(C(=O)NCCCN2C(=O)c3ccccc3C2=O)C(C)(C)N1` showed a logP [19] of 1.63.

`N#Cc1ccc2c(c1)N(CCCN1CCC(O)CC1)c1ccccc1S2` gave a logP [20] of 3.89.

`CCCCCCCC(=O)OC(CNC(C)(C)C)COc1nsnc1N1CCOCC1` (stereo unspecified) showed a logP [21] of 4.66.

`COC(=O)C(C)NP(=O)(Oc1ccc(C)cc1)OC1C=CC(n2cc(C)c(=O)[nH]c2=O)O1` (stereo unspecified) showed a logD [22] of 1.19.

With `CNc1ccc(C=Cc2ccc(OCCOCCF)cc2)cc1` the logD [6] was 2.52.

Compound `CCOC(=O)C(C)Oc1ccc(Oc2cnc3cc(F)ccc3n2)cc1` (stereo unspecified) has a logP [3] of 3.65.

Work on `CCN(CC)C(=O)Nc1ccc(OCC(O)CNC(C)(C)C)c(C(C)=O)c1` (stereo unspecified) yielded a logP [20] of 1.92.

`CO[C@@]12CCC(=O)[C@]3(C)Oc4c(O)ccc5c4[C@@]31CCN(C)[C@@H]2C5` showed a logP [23] of 1.12.

In the case of `CC1(C)CC(N(CCN(C(=O)N(CCCl)N=O)C2CC(C)(C)N(O)C(C)(C)C2)C(=O)N(CCCl)N=O)CC(C)(C)N1O`, the logP [24] is reported as 2.35.

For `COC(=O)C(C)NP(=O)(OCC1C=CC(n2cc(C)c(=O)[nH]c2=O)O1)Oc1ccc(OC(C)=O)cc1` (stereo unspecified), the logD [22] was 1.01.

With `CNc1nc(NCCCN(C)C)c2sc(-c3ccc(C(=O)C(F)(F)F)cc3)cc2n1` the logP [11] was 4.6.

`CO[C@@]12CCC(=O)[C@@H]3Oc4c(O)ccc5c4[C@@]31CCN(C)[C@@H]2C5` gave a logP [23] of 0.6.

For `CC(=O)Oc1ccc(C(O)(Cn2ccnc2)c2ccc(-c3ccncc3)cc2)cc1` (stereo unspecified), the logP [25] was 2.61.

Work on `Cc1cccc(C)c1N(CCCN(C)C)C(=O)/C=C/c1ccccc1` yielded a logP [17] of 5.27.

Compound `C[C@H](CCC(=O)O)[C@H]1CC[C@H]2[C@@H]3CC[C@@H]4C[C@H](O)CC[C@]4(C)[C@H]3C[C@H](O)[C@]12C` has a logD [5] of 3.5.

`CCc1cc2cc(C(=O)C3CCC(OC)CC3)ccc2nc1F` (stereo unspecified) gave a logD [16] of 3.54.

`CCCCC[C@](C)(O)/C=C/C1[C@H](O)C[C@H](O)[C@@H]1C/C=C\CCCC(=O)OC` (stereo partly specified) gave a logP [26] of 3.21.

`CC(n1ccnc1)C(O)(c1ccc(F)cc1)c1ccc(F)cc1` (stereo unspecified) showed a logP [25] of 3.13.

Compound `COC(=O)C1=C(C)NC(C)=C(C(=O)OCC(C)C)C1c1cccc([N+](=O)[O-])c1` (stereo unspecified) has a logP [15] of 3.23.

Work on `O=C(CCN1CCOCC1)CN1C(=O)CC2(CCCc3ccccc32)C1=O` (stereo unspecified) yielded a logD [27] of 1.63.

With `CN(SN(C)C(=O)Oc1cccc2ccccc12)C(=O)Oc1ccc2c(c1)OCO2` the logP was 2.83.

With `COc1cc(C(=O)NC2CCCC3CN(C)CCC32)cc(OC)c1OC` (stereo unspecified) the logP [28] was -0.3.

For `COc1cc(C(=O)OC2CCC[C@@H]3CN(C)CC[C@H]23)cc(OC)c1OC` (stereo partly specified), the logP [28] was 0.58.

`O=C(O)c1ccccc1C1c2cc(Cl)c(O)cc2Oc2cc(O)c(Cl)cc21` gave a logP [29] of 2.62.

`C=CCN1CC[C@]23c4c5ccc(O)c4O[C@H]2C(=O)CC[C@@]3(O)[C@H]1C5` showed a logP [30] of 1.53.

`O=C(CCN1CCOCC1)CN1C(=O)CC2(CCc3ccccc32)C1=O` (stereo unspecified) showed a logD [27] of 1.26.

Compound `CN(C)c1ccc(/C=C/c2cnc(OCCOCCOCCF)c(I)c2)cc1` has a logD [1] of 2.59.

For `COc1ccc(C(C)NCCC(c2ccccc2)c2ccccc2)cc1OC` (stereo unspecified), the logP [19] was 5.74.

With `CC1(C)CC(N(C(=O)N(CCCl)N=O)C2CC(C)(C)N(O)C(C)(C)C2)CC(C)(C)N1O` the logP [24] was 1.63.

`CCCCC[C@H](O)/C=C/[C@@H]1[C@@H](C/C=C\CCCC(=O)O)[C@@H](O)C[C@H]1O` gave a logP [26] of 2.72.

`CC(=O)Oc1cc2c(cc1Cl)C(c1ccccc1C(=O)O)c1cc(Cl)c(OC(C)=O)cc1O2` showed a logP [29] of 3.51.

`Cc1ccccc1C1OCC2ON=C(c3ccccc3)C2CO1` (stereo unspecified) gave a logP [13] of 2.72.

Compound `OC(CCN1CCCCC1)(c1ccccc1)C1CC2C=CC1C2` (stereo unspecified) has a logP [18] of 4.25.

Work on `CCCCCCOC(=O)NCCCC(C)Nc1cc(OC)cc2cccnc12` (stereo unspecified) yielded a logD [14] of 3.02.

`CSc1nc(NCCc2ccccc2)c2cnn(C(Cl)c3ccc(Cl)cc3)c2n1` (stereo unspecified) gave a logP [9] of 6.54.

For `O=C1CC[C@@]2(O)[C@H]3Cc4ccc(O)c5c4[C@@]2(CCN3CC2CC2)[C@H]1O5`, the logP [30] was 1.12.

`O=C(NC1CCCCC1)c1ccc(O)c(-c2ccccc2)c1` showed a logD [12] of 2.85.
